In ChEMBL document CHEMBL5303573, “Mapping human microbiome drug metabolism by gut bacteria and their genes” (Nature, 2019):

How the values were obtained:
[1] = The drug is tested on Bacteroides xylanisolvens strain: DSM18836 for biotransformation. The drug concentrations were measured before and after a 12-h incubation by liquid-chromatography-coupled mass spectrometry (LC–MS); conditions: 2 µM
[2] = The drug is tested on Bacteroides fragilis strain: HMW610 for biotransformation. The drug concentrations were measured before and after a 12-h incubation by liquid-chromatography-coupled mass spectrometry (LC–MS); conditions: 2 µM
[3] = The drug is tested on Odoribacter splanchnicus strain: fecal isolate for biotransformation. The drug concentrations were measured before and after a 12-h incubation by liquid-chromatography-coupled mass spectrometry (LC–MS); conditions: 2 µM
[4] = The drug is tested on Blautia luti strain: DSM14534 for biotransformation. The drug concentrations were measured before and after a 12-h incubation by liquid-chromatography-coupled mass spectrometry (LC–MS); type: ADME; set-up: dose 2 uM, timepoint 0 vs 12 hours; conditions: 2 µM
[5] = The drug is tested on Clostridium asparagiforme strain: DSM15981 for biotransformation. The drug concentrations were measured before and after a 12-h incubation by liquid-chromatography-coupled mass spectrometry (LC–MS); type: ADME; set-up: dose 2 uM, timepoint 0 vs 12 hours; conditions: enterocloster asparagiformis, 2 µM
[6] = The drug is tested on Bacteroides cellulosilyticus strain: DSM14838 for biotransformation. The drug concentrations were measured before and after a 12-h incubation by liquid-chromatography-coupled mass spectrometry (LC–MS); conditions: 2 µM
[7] = anaerostipes sp., 12 h, 2 µM
Description: The drug is tested on Anaerostipes sp. strain: fecal isolate for biotransformation. The drug concentrations were measured before and after a 12-h incubation by liquid-chromatography-coupled mass spectrometry (LC–MS)

[8] = The drug is tested on Bacteroides fragilis strain: HMW615 for biotransformation. The drug concentrations were measured before and after a 12-h incubation by liquid-chromatography-coupled mass spectrometry (LC–MS); conditions: 2 µM
[9] = The drug is tested on Clostridium symbiosum strain: ATCC14940 for biotransformation. The drug concentrations were measured before and after a 12-h incubation by liquid-chromatography-coupled mass spectrometry (LC–MS); conditions: 2 µM
[10] = The drug is tested on Subdoligranulum variabile strain: DSM15176 for biotransformation. The drug concentrations were measured before and after a 12-h incubation by liquid-chromatography-coupled mass spectrometry (LC–MS); conditions: 2 µM
[11] = The drug is tested on Enterobacter cancerogenus strain: ATCC35316 for biotransformation. The drug concentrations were measured before and after a 12-h incubation by liquid-chromatography-coupled mass spectrometry (LC–MS); conditions: 2 µM
[12] = The drug is tested on Bacteroides vulgatus strain: ATCC8482 for biotransformation. The drug concentrations were measured before and after a 12-h incubation by liquid-chromatography-coupled mass spectrometry (LC–MS); conditions: phocaeicola vulgatus, 2 µM
[13] = The drug is tested on Bacteroides uniformis strain: ATCC8492 for biotransformation. The drug concentrations were measured before and after a 12-h incubation by liquid-chromatography-coupled mass spectrometry (LC–MS); conditions: 2 µM
[14] = The drug is tested on Bacteroides caccae strain: ATCC43185 for biotransformation. The drug concentrations were measured before and after a 12-h incubation by liquid-chromatography-coupled mass spectrometry (LC–MS); conditions: 2 µM
[15] = The drug is tested on Coprococcus comes strain: ATCC27758 for biotransformation. The drug concentrations were measured before and after a 12-h incubation by liquid-chromatography-coupled mass spectrometry (LC–MS); type: ADME; set-up: dose 2 uM, timepoint 0 vs 12 hours; conditions: 2 µM
[16] = The drug is tested on Dorea formicigenerans strain: ATCC27755 for biotransformation. The drug concentrations were measured before and after a 12-h incubation by liquid-chromatography-coupled mass spectrometry (LC–MS); conditions: 2 µM
[17] = bacteroides fragilis, 12 h, 2 µM
Description: The drug is tested on Bacteroides fragilis strain: DS-208 for biotransformation. The drug concentrations were measured before and after a 12-h incubation by liquid-chromatography-coupled mass spectrometry (LC–MS)

[18] = bacteroides intestinalis, 12 h, 2 µM
Description: The drug is tested on Bacteroides intestinalis strain: DSM17393 for biotransformation. The drug concentrations were measured before and after a 12-h incubation by liquid-chromatography-coupled mass spectrometry (LC–MS)

[19] = segatella copri, 12 h, 2 µM
Description: The drug is tested on Prevotella copri strain: DSM18205 for biotransformation. The drug concentrations were measured before and after a 12-h incubation by liquid-chromatography-coupled mass spectrometry (LC–MS)

[20] = akkermansia muciniphila, 12 h, 2 µM
Description: The drug is tested on Akkermansia muciniphila strain: ATCC BAA-835 for biotransformation. The drug concentrations were measured before and after a 12-h incubation by liquid-chromatography-coupled mass spectrometry (LC–MS)

CN1CCN(C(=O)O[C@H]2c3nccnc3C(=O)N2c2ccc(Cl)cn2)CC1 [ESZOPICLONE]
Bacterial Biotransformation [1]: Compound NOT metabolized
Bacterial Biotransformation [2]: Compound NOT metabolized
Bacterial Biotransformation [3]: Compound metabolized
Bacterial Biotransformation [4]: Compound NOT metabolized
Bacterial Biotransformation [5]: Compound NOT metabolized
Bacterial Biotransformation [6]: Compound metabolized
Bacterial Biotransformation [7]: Compound NOT metabolized
Bacterial Biotransformation [8]: Compound NOT metabolized
Bacterial Biotransformation [9]: Compound NOT metabolized
Bacterial Biotransformation [10]: Compound NOT metabolized
Bacterial Biotransformation [11]: Compound NOT metabolized
Bacterial Biotransformation [12]: Compound metabolized
Bacterial Biotransformation [13]: Compound NOT metabolized
Bacterial Biotransformation [14]: Compound NOT metabolized
Bacterial Biotransformation [15]: Compound NOT metabolized
Bacterial Biotransformation [16]: Compound NOT metabolized

O=C(O)CCc1nc(-c2ccccc2)c(-c2ccccc2)o1 [OXAPROZIN]
Bacterial Biotransformation [1]: Compound metabolized
Bacterial Biotransformation [2]: Compound metabolized
Bacterial Biotransformation [3]: Compound metabolized
Bacterial Biotransformation [4]: Compound NOT metabolized
Bacterial Biotransformation [5]: Compound metabolized
Bacterial Biotransformation [6]: Compound NOT metabolized
Bacterial Biotransformation [17]: Compound metabolized
Bacterial Biotransformation [7]: Compound NOT metabolized
Bacterial Biotransformation [8]: Compound metabolized
Bacterial Biotransformation [9]: Compound NOT metabolized
Bacterial Biotransformation [10]: Compound NOT metabolized
Bacterial Biotransformation [11]: Compound NOT metabolized
Bacterial Biotransformation [18]: Compound metabolized
Bacterial Biotransformation [12]: Compound metabolized
Bacterial Biotransformation [19]: Compound NOT metabolized
Bacterial Biotransformation [13]: Compound metabolized
Bacterial Biotransformation [15]: Compound NOT metabolized
Bacterial Biotransformation [16]: Compound NOT metabolized

CC(=O)O[C@]1(C(C)=O)CC[C@H]2[C@@H]3C=C(C)C4=CC(=O)CC[C@]4(C)[C@H]3CC[C@@]21C [MEGESTROL ACETATE]
Bacterial Biotransformation [1]: Compound metabolized
Bacterial Biotransformation [2]: Compound metabolized
Bacterial Biotransformation [3]: Compound metabolized
Bacterial Biotransformation [5]: Compound NOT metabolized
Bacterial Biotransformation [6]: Compound NOT metabolized
Bacterial Biotransformation [17]: Compound metabolized
Bacterial Biotransformation [7]: Compound NOT metabolized
Bacterial Biotransformation [8]: Compound metabolized
Bacterial Biotransformation [9]: Compound NOT metabolized
Bacterial Biotransformation [10]: Compound NOT metabolized
Bacterial Biotransformation [11]: Compound NOT metabolized
Bacterial Biotransformation [18]: Compound metabolized
Bacterial Biotransformation [12]: Compound metabolized
Bacterial Biotransformation [19]: Compound NOT metabolized
Bacterial Biotransformation [13]: Compound metabolized
Bacterial Biotransformation [15]: Compound NOT metabolized
Bacterial Biotransformation [16]: Compound NOT metabolized

CN1CCN(C2=Nc3ccccc3Oc3ccc(Cl)cc32)CC1.O=C(O)CCC(=O)O [LOXAPINE SUCCINATE]
Bacterial Biotransformation [1]: Compound NOT metabolized
Bacterial Biotransformation [2]: Compound NOT metabolized
Bacterial Biotransformation [3]: Compound NOT metabolized
Bacterial Biotransformation [4]: Compound NOT metabolized
Bacterial Biotransformation [5]: Compound NOT metabolized
Bacterial Biotransformation [6]: Compound NOT metabolized
Bacterial Biotransformation [17]: Compound NOT metabolized
Bacterial Biotransformation [7]: Compound NOT metabolized
Bacterial Biotransformation [20]: Compound NOT metabolized
Bacterial Biotransformation [8]: Compound NOT metabolized
Bacterial Biotransformation [9]: Compound NOT metabolized
Bacterial Biotransformation [10]: Compound NOT metabolized
Bacterial Biotransformation [11]: Compound NOT metabolized
Bacterial Biotransformation [18]: Compound NOT metabolized
Bacterial Biotransformation [12]: Compound NOT metabolized
Bacterial Biotransformation [19]: Compound NOT metabolized
Bacterial Biotransformation [13]: Compound NOT metabolized
Bacterial Biotransformation [14]: Compound NOT metabolized
Bacterial Biotransformation [15]: Compound NOT metabolized
Bacterial Biotransformation [16]: Compound NOT metabolized

C[C@H]1O[C@@H](O[C@H]2[C@@H](O)C[C@H](O[C@H]3[C@@H](O)C[C@H](O[C@H]4CC[C@@]5(C)[C@H](CC[C@@H]6[C@@H]5C[C@@H](O)[C@]5(C)[C@@H](C7=CC(=O)OC7)CC[C@]65O)C4)O[C@@H]3C)O[C@@H]2C)C[C@H](O)[C@@H]1O [DIGOXIN]
Bacterial Biotransformation [1]: Compound metabolized
Bacterial Biotransformation [2]: Compound metabolized
Bacterial Biotransformation [3]: Compound metabolized
Bacterial Biotransformation [4]: Compound NOT metabolized
Bacterial Biotransformation [5]: Compound NOT metabolized
Bacterial Biotransformation [6]: Compound NOT metabolized
Bacterial Biotransformation [17]: Compound metabolized
Bacterial Biotransformation [7]: Compound NOT metabolized
Bacterial Biotransformation [20]: Compound NOT metabolized
Bacterial Biotransformation [8]: Compound metabolized
Bacterial Biotransformation [9]: Compound NOT metabolized
Bacterial Biotransformation [10]: Compound NOT metabolized
Bacterial Biotransformation [11]: Compound NOT metabolized
Bacterial Biotransformation [18]: Compound NOT metabolized
Bacterial Biotransformation [12]: Compound metabolized
Bacterial Biotransformation [19]: Compound NOT metabolized
Bacterial Biotransformation [13]: Compound metabolized
Bacterial Biotransformation [14]: Compound NOT metabolized
Bacterial Biotransformation [15]: Compound NOT metabolized
Bacterial Biotransformation [16]: Compound NOT metabolized

O=c1[nH]c2ccccc2n1CCCN1CCC(n2c(=O)[nH]c3cc(Cl)ccc32)CC1 [DOMPERIDONE]
Bacterial Biotransformation [1]: Compound NOT metabolized
Bacterial Biotransformation [2]: Compound NOT metabolized
Bacterial Biotransformation [3]: Compound NOT metabolized
Bacterial Biotransformation [4]: Compound NOT metabolized
Bacterial Biotransformation [5]: Compound NOT metabolized
Bacterial Biotransformation [6]: Compound NOT metabolized
Bacterial Biotransformation [17]: Compound NOT metabolized
Bacterial Biotransformation [7]: Compound NOT metabolized
Bacterial Biotransformation [20]: Compound NOT metabolized
Bacterial Biotransformation [8]: Compound NOT metabolized
Bacterial Biotransformation [9]: Compound NOT metabolized
Bacterial Biotransformation [10]: Compound NOT metabolized
Bacterial Biotransformation [11]: Compound NOT metabolized
Bacterial Biotransformation [18]: Compound NOT metabolized
Bacterial Biotransformation [12]: Compound NOT metabolized
Bacterial Biotransformation [19]: Compound NOT metabolized
Bacterial Biotransformation [13]: Compound NOT metabolized
Bacterial Biotransformation [14]: Compound NOT metabolized
Bacterial Biotransformation [15]: Compound NOT metabolized
Bacterial Biotransformation [16]: Compound NOT metabolized

Cc1cc2c(cc1S(N)(=O)=O)S(=O)(=O)CCC2
Bacterial Biotransformation [1]: Compound NOT metabolized
Bacterial Biotransformation [2]: Compound NOT metabolized
Bacterial Biotransformation [3]: Compound NOT metabolized
Bacterial Biotransformation [4]: Compound NOT metabolized
Bacterial Biotransformation [5]: Compound NOT metabolized
Bacterial Biotransformation [6]: Compound NOT metabolized
Bacterial Biotransformation [17]: Compound NOT metabolized
Bacterial Biotransformation [7]: Compound NOT metabolized
Bacterial Biotransformation [20]: Compound NOT metabolized
Bacterial Biotransformation [8]: Compound NOT metabolized
Bacterial Biotransformation [9]: Compound NOT metabolized
Bacterial Biotransformation [10]: Compound NOT metabolized
Bacterial Biotransformation [11]: Compound NOT metabolized
Bacterial Biotransformation [18]: Compound NOT metabolized
Bacterial Biotransformation [12]: Compound NOT metabolized
Bacterial Biotransformation [19]: Compound NOT metabolized
Bacterial Biotransformation [13]: Compound NOT metabolized
Bacterial Biotransformation [14]: Compound NOT metabolized
Bacterial Biotransformation [15]: Compound NOT metabolized

Cc1ccc(S(=O)(=O)NC(=O)NN2CC3CCCC3C2)cc1 (centres undefined) [GLICLAZIDE]
Bacterial Biotransformation [1]: Compound NOT metabolized
Bacterial Biotransformation [2]: Compound metabolized
Bacterial Biotransformation [3]: Compound NOT metabolized
Bacterial Biotransformation [4]: Compound NOT metabolized
Bacterial Biotransformation [5]: Compound NOT metabolized
Bacterial Biotransformation [6]: Compound NOT metabolized
Bacterial Biotransformation [17]: Compound NOT metabolized
Bacterial Biotransformation [7]: Compound NOT metabolized
Bacterial Biotransformation [20]: Compound NOT metabolized
Bacterial Biotransformation [8]: Compound NOT metabolized
Bacterial Biotransformation [9]: Compound NOT metabolized
Bacterial Biotransformation [10]: Compound NOT metabolized
Bacterial Biotransformation [11]: Compound NOT metabolized
Bacterial Biotransformation [18]: Compound NOT metabolized
Bacterial Biotransformation [12]: Compound metabolized
Bacterial Biotransformation [19]: Compound NOT metabolized
Bacterial Biotransformation [14]: Compound NOT metabolized
Bacterial Biotransformation [15]: Compound NOT metabolized
Bacterial Biotransformation [16]: Compound NOT metabolized
